In patent US7572786B2, “Substituted 1-piperidin-3-yl-4-piperidin-4-yl-piperazine derivatives and their use as neurokinin antagonists” (Janssen Pharmaceutica, N.V., priority 2002, dated 2009):

Tests used:
Type in all cases: cell-based
[1] = target: NK1 (Homo sapiens, UniProt P25103); assay: Signal transduction (ST), intracellular Ca++ (FLIPR), NK1 antagonism; settings: for IC50: read-out: pIC50 NK1 (converted)
Protocol: (§1) This test evaluates in vitro functional NK1 antagonistic activity. For the measurements of intracellular Ca^++ concentrations the cells were grown on 96-well (black wall/transparent bottom) plates from Costar for 2 days until they reached confluence. The cells were loaded with 2 μM Fluo3 in DMEM containing 0.1% BSA and 2.5 mM probenecid for 1 h at 37° C. […] The cells were preincubated with a concentration range of antagonists for 20 min at RT and Ca^++-signals after addition of the agonists were measured in a Fluorescence Image Plate Reader (FLIPR from Molecular Devices, Crawley, England). The peak of the Ca^++-transient was considered as the relevant signal and the mean values of corresponding wells were analysed as described below.
(§2) The sigmoidal dose response curves were analysed by computerised curve-fitting, using the GraphPad Program. […] For antagonist responses the IC50-value was calculated using non-linear regression.

[2] = target: T1, NK3 (Homo sapiens, UniProt P29371); assay: Signal transduction (ST), intracellular Ca++ (FLIPR), NK3; settings: read-out: pIC50 NK3 (converted)
T1 sequence (P29371 1-465): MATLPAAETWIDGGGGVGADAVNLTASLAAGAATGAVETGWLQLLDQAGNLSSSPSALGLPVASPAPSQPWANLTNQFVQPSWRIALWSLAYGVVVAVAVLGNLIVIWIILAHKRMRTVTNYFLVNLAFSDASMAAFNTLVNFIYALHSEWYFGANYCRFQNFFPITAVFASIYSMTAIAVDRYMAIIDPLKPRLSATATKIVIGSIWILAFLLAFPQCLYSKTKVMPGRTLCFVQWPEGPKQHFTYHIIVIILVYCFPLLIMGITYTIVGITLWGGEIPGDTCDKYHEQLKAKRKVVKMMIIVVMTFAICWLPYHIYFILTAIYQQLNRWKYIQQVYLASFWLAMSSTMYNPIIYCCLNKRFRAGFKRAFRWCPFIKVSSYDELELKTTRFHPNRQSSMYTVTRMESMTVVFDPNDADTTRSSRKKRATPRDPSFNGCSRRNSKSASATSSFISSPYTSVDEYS
Protocol: [The source words this procedure for another target and reports this target under the same test.] as §1, §2

[3] = target: T2, NK2 (Homo sapiens, UniProt P21452); assay: Signal transduction (ST), intracellular Ca++ (FLIPR), NK2; settings: read-out: pIC50 NK2 (converted)
T2 sequence (P21452 1-398): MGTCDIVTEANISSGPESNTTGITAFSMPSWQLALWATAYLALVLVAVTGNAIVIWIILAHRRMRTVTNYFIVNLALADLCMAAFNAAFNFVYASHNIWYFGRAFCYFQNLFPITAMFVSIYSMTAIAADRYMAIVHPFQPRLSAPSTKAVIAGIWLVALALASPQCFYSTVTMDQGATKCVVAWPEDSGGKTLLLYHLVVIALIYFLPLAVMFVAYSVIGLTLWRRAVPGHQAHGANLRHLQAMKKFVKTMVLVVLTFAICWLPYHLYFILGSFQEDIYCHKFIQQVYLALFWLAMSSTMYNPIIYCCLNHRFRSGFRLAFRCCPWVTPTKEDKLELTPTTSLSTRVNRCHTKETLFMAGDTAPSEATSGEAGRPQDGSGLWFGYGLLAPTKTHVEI
Protocol: [The source words this procedure for another target and reports this target under the same test.] as §1, §2

NK1, sequence (P25103 whole entry): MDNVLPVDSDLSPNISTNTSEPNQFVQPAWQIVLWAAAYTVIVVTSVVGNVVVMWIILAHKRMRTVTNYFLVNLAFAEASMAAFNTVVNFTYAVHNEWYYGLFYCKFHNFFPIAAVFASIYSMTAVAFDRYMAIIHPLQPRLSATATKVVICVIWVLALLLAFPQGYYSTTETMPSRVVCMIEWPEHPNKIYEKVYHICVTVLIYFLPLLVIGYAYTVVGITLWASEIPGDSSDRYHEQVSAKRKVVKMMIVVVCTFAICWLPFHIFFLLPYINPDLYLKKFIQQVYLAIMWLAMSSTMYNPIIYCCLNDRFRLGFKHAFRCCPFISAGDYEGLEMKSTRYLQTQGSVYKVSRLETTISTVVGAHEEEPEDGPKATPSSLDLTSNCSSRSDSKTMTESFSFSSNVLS

| IC50 [1] | IC50 [2] | IC50 [3] | Structure (SMILES) | pIC50 NK1 [1] |
| --- | --- | --- | --- | --- |
| 20 nM | 2510 nM |  | O=C(c1ccco1)N1CCCC(N2CCN([C@H]3CCN(C(=O)c4cc(C(F)(F)F)cc(C(F)(F)F)c4)[C@H](Cc4ccccc4)C3)CC2)C1 (stereo partly shown) [Compound 18] |  |
| 158 nM |  |  | O=C(c1ccoc1)N1CCCC(N2CCCN(C3CCN(C(=O)c4cc(C(F)(F)F)cc(C(F)(F)F)c4)C(Cc4ccccc4)C3)CC2)C1 (single isomer, unassigned) [Compound 112] |  |
| 126 nM | 7940 nM |  | O=C(C1CCOC1)N1CCCC(N2CCCN(C3CCN(C(=O)c4cc(C(F)(F)F)cc(C(F)(F)F)c4)C(Cc4ccccc4)C3)CC2)C1 (single isomer, unassigned) [Compound 121] |  |
| 12.6 nM | 2000 nM |  | CC1(C(=O)N2CCCC(N3CCN([C@H]4CCN(C(=O)c5cc(C(F)(F)F)cc(C(F)(F)F)c5)[C@H](Cc5ccccc5)C4)CC3)C2)CC1 (stereo partly shown) [Compound 14] |  |
| 25.1 nM | 3980 nM |  | O=C(C(=O)N1CCCC(N2CCN(C3CCN(C(=O)c4cc(C(F)(F)F)cc(C(F)(F)F)c4)C(Cc4ccccc4)C3)CC2)C1)c1ccco1 (stereo not shown) [Compound 24] |  |
| 20 nM | 1260 nM |  | O=C(c1cc(C(F)(F)F)cc(C(F)(F)F)c1)N1CC[C@H](N2CCN(C3CCCN(C(=O)n4ccnc4)C3)CC2)C[C@H]1Cc1ccccc1 (stereo partly shown) [Compound 21] |  |
| 5.01 nM | 6310 nM |  | CC(=O)N1CCC[C@H]1C(=O)N1CCCC(N2CCN([C@H]3CCN(C(=O)c4cc(C(F)(F)F)cc(C(F)(F)F)c4)[C@H](Cc4ccccc4)C3)CC2)C1 (stereo partly shown) [Compound 60] |  |
| 50.1 nM | 3980 nM |  | O=C(c1ccoc1)N1CCCC(N2CCCN(C3CCN(C(=O)c4cc(C(F)(F)F)cc(C(F)(F)F)c4)C(Cc4ccccc4)C3)CC2)C1 (single isomer, unassigned) [Compound 116] |  |
| 10 nM | 2000 nM |  | CC(C)S(=O)(=O)N1CCCC(N2CCN([C@H]3CCN(C(=O)c4cc(C(F)(F)F)cc(C(F)(F)F)c4)[C@H](Cc4ccccc4)C3)CC2)C1 (stereo partly shown) [Compound 35] |  |
| 126 nM | 7940 nM |  | O=C(C1CC1)N1CCCC(N2CCCN([C@@H]3CCN(C(=O)c4cc(C(F)(F)F)cc(C(F)(F)F)c4)[C@H](Cc4ccccc4)C3)CC2)C1 (stereo partly shown) [Compound 114] |  |
| 31.6 nM | 2510 nM |  | O=C(c1ccoc1)N1CCCC(N2CCN(C3CCN(C(=O)c4cc(C(F)(F)F)cc(C(F)(F)F)c4)C(Cc4ccccc4)C3)CC2)C1 (stereo not shown) [Compound 17] |  |
| 7.94 nM | 2510 nM |  | Cc1cc(C(=O)N2CCCC(N3CCN([C@H]4CCN(C(=O)c5cc(C(F)(F)F)cc(C(F)(F)F)c5)[C@H](Cc5ccccc5)C4)CC3)C2)n(C)n1 (stereo partly shown) [Compound 42] |  |
| 20 nM | 251 nM |  | O=C(c1ccccc1)N1CCCC(N2CCN([C@H]3CCN(C(=O)c4cc(C(F)(F)F)cc(C(F)(F)F)c4)[C@H](Cc4ccccc4)C3)CC2)C1 (stereo partly shown) [Compound 8] |  |
| 25.1 nM | 2000 nM |  | Cc1occc1C(=O)N1CCCC(N2CCN([C@H]3CCN(C(=O)c4cc(C(F)(F)F)cc(C(F)(F)F)c4)[C@H](Cc4ccccc4)C3)CC2)C1 (stereo partly shown) [Compound 19] |  |
| 39.8 nM | 6310 nM |  | O=C(C1CCOC1)N1CCCC(N2CCCN(C3CCN(C(=O)c4cc(C(F)(F)F)cc(C(F)(F)F)c4)C(Cc4ccccc4)C3)CC2)C1 (single isomer, unassigned) [Compound 115] |  |
| 20 nM |  |  | O=C(c1cc(C(F)(F)F)cc(C(F)(F)F)c1)N1CCC(N2CCN(C3CCCNC3)CC2)CC1Cc1ccccc1 (stereo not shown) [Compound 2] |  |
| 25.1 nM | 3160 nM |  | O=C(c1cc(F)ccc1F)N1CCCC(N2CCN([C@H]3CCN(C(=O)c4cc(C(F)(F)F)cc(C(F)(F)F)c4)[C@H](Cc4ccccc4)C3)CC2)C1 (stereo partly shown) [Compound 12] |  |
| 79.4 nM | 2000 nM |  | Cc1cc(C)cc(C(=O)N2CCCC(N3CCN(C4CCN(C(=O)c5cc(C(F)(F)F)cc(C(F)(F)F)c5)C(Cc5ccccc5)C4)CC3)C2)c1 (stereo not shown) [Compound 3] |  |
| 12.6 nM | 1000 nM |  | O=C(C1CCOC1)N1CCCC(N2CCN([C@H]3CCN(C(=O)c4cc(C(F)(F)F)cc(C(F)(F)F)c4)[C@H](Cc4ccccc4)C3)CC2)C1 (stereo partly shown) [Compound 16] |  |

Second part, the compound before the results:

| Structure (SMILES) | IC50 [1] | IC50 [2] | IC50 [3] | pIC50 NK1 [1] |
| --- | --- | --- | --- | --- |
| O=C(c1ccccc1Cl)N1CCCC(N2CCCN([C@@H]3CCN(C(=O)c4cc(C(F)(F)F)cc(C(F)(F)F)c4)[C@H](Cc4ccccc4)C3)CC2)C1 (stereo partly shown) [Compound 119] | 126 nM |  |  |  |
| O=C(c1cc(C(F)(F)F)cc(C(F)(F)F)c1)N1CC[C@@H](N2CCCN(C3CCCN(S(=O)(=O)c4cccs4)C3)CC2)C[C@H]1Cc1ccccc1 (stereo partly shown) [Compound 120] | 200 nM | 7940 nM |  |  |
| O=C(c1cc(C(F)(F)F)cc(C(F)(F)F)c1)N1CCC(N2CCN(C3CCCNC3)CC2)CC1Cc1ccccc1 (stereo not shown) [Compound 108] | 79.4 nM |  |  |  |
| O=C(c1cc(C(F)(F)F)cc(C(F)(F)F)c1)N1CC[C@H](N2CCN(C3CCCN(S(=O)(=O)c4ccc(COCc5ccccc5)cc4)C3)CC2)C[C@H]1Cc1ccccc1 (stereo partly shown) [Compound 58] | 251 nM |  | 2000 nM |  |
| O=C(c1cc(C(F)(F)F)cc(C(F)(F)F)c1)N1CCC(N2CCN(C3CCCNC3)CC2)CC1Cc1ccccc1 (single isomer, unassigned) [Compound 109] |  |  |  | 7.3 |
| O=C(c1cc(C(F)(F)F)cc(C(F)(F)F)c1)N1CC[C@@H](N2CCCN(C3CCCN(Cc4ccccc4)C3)CC2)C[C@H]1Cc1ccccc1 (stereo partly shown) [Compound 110] | 200 nM |  |  |  |
| Cc1cc(C)cc(C(=O)N2CCCC(N3CCN([C@@H]4CCN(C(=O)c5cc(C(F)(F)F)cc(C(F)(F)F)c5)[C@H](Cc5ccccc5)C4)CC3)C2)c1.O=C(O)/C=C/C(=O)O.O=C(O)/C=C/C(=O)O (stereo partly shown) [Compound 13] |  |  |  | 6.3 |
| Cc1csc(C)c1S(=O)(=O)N1CCCC(N2CCN([C@H]3CCN(C(=O)c4cc(C(F)(F)F)cc(C(F)(F)F)c4)[C@H](Cc4ccccc4)C3)CC2)C1 (stereo partly shown) [Compound 33] | 39.8 nM | 1000 nM |  |  |
| O=C(c1cc(C(F)(F)F)cc(C(F)(F)F)c1)N1CC[C@H](N2CCCN(C3CCCN(S(=O)(=O)c4cccs4)C3)CC2)C[C@H]1Cc1ccccc1 (stereo partly shown) [Compound 122] | 100 nM |  |  |  |
| O=C(c1cc(C(F)(F)F)cc(C(F)(F)F)c1)N1CCC(N2CCN(C3CCCN(Cc4ccccc4)C3)CC2)CC1Cc1ccccc1 (stereo not shown) [Compound 1] | 50.1 nM |  |  |  |
| O=C(c1cc(C(F)(F)F)cc(C(F)(F)F)c1)N1CC[C@H](N2CCN(C3CCCN(S(=O)(=O)c4ccc(O)c(F)c4)C3)CC2)C[C@H]1Cc1ccccc1 (stereo partly shown) [Compound 107] | 15.8 nM | 1260 nM |  |  |
| O=C(c1ccc(CCOCc2ccccc2)s1)N1CCCC(N2CCN(C3CCN(C(=O)c4cc(C(F)(F)F)cc(C(F)(F)F)c4)C(Cc4ccccc4)C3)CC2)C1 (stereo not shown) [Compound 93] | 126 nM | 5010 nM |  |  |
| Cc1c(S(=O)(=O)N2CCCC(N3CCN([C@H]4CCN(C(=O)c5cc(C(F)(F)F)cc(C(F)(F)F)c5)[C@H](Cc5ccccc5)C4)CC3)C2)cnn1-c1ccccc1 (stereo partly shown) [Compound 44] | 63.1 nM | 5010 nM |  |  |
| COc1ccc(C)cc1S(=O)(=O)N1CCCC(N2CCN([C@H]3CCN(C(=O)c4cc(C(F)(F)F)cc(C(F)(F)F)c4)[C@H](Cc4ccccc4)C3)CC2)C1 (stereo partly shown) [Compound 31] | 25.1 nM | 3160 nM |  |  |
| O=C(c1cc(C(F)(F)F)cc(C(F)(F)F)c1)N1CC[C@H](N2CCN(C3CCCN(S(=O)(=O)c4ccc(-c5ccccn5)s4)C3)CC2)C[C@H]1Cc1ccccc1 (stereo partly shown) [Compound 34] | 50.1 nM | 2000 nM |  |  |
| O=C(c1cc(C(F)(F)F)cc(C(F)(F)F)c1)N1CC[C@H](N2CCN(C3CCCN(S(=O)(=O)c4ccccc4Cl)C3)CC2)C[C@H]1Cc1ccccc1 (stereo partly shown) [Compound 27] | 20 nM | 1260 nM |  |  |
| COc1ccc(S(=O)(=O)N2CCCC(N3CCN([C@H]4CCN(C(=O)c5cc(C(F)(F)F)cc(C(F)(F)F)c5)[C@H](Cc5ccccc5)C4)CC3)C2)cc1F (stereo partly shown) [Compound 7] | 50.1 nM | 1000 nM |  |  |
| O=C(c1cc(C(F)(F)F)cc(C(F)(F)F)c1)N1CC[C@H](N2CCCN(C3CCCN(Cc4ccccc4)C3)CC2)C[C@H]1Cc1ccccc1 (stereo partly shown) [Compound 111] | 251 nM | 7940 nM |  |  |
| O=C(c1ccccc1Cl)N1CCCC(N2CCCN([C@H]3CCN(C(=O)c4cc(C(F)(F)F)cc(C(F)(F)F)c4)[C@H](Cc4ccccc4)C3)CC2)C1 (stereo partly shown) [Compound 118] | 63.1 nM | 2510 nM |  |  |
